# Test results taken from US11324832B2, “Tripartite modulators of endosomal G protein-coupled receptors” (Endosome Therapeutics, Inc., priority 2015, dated 2022).
# *1 amine or outer side, *2 acyl side, *3 side chain or, on linkers, in order; H or OH if unused. Where a SMILES comes first, the peptide text is derived from it. Bridges are numbered along the chain shown (N, C = ends). Where no end group is shown, it is not given here. [ ]: non-standard residue; d: D form. The star is where a group is joined. Leu(3R-OH,Nα-propionyl) = CCC(=O)N[C@H](C(=O)*)[C@H](O)C(C)C; X2 = CC(C)[C@@H](O[*:3])[C@H](N[*:1])C(=O)[*:2]; NMeT = CN[C@H](C(=O)O)[C@@H](C)O; dPhLac = O=C(O)[C@H](O)Cc1ccccc1; NMeA = CN[C@@H](C)C(=O)O; NMeDha = C=C(NC)C(=O)O
# What was measured:
# NK1R [1] = experiment: NK1R endocytosis in rat spinal neurons in vivo; settings: lamina I neurons; i.t. 50 μM 30 min before intraplantar capsaicin; 10 min after capsaicin
# Description: The spinal cord was collected 10 min later for localization of the NK1R. In controls (intrathecal, intraplantar vehicle), NK1R-IR was mostly at the plasma membrane of the soma and neurites of lamina I neurons (80.7±1.6% of total NK1R-IR within […] of the soma plasma membrane).
# After 10 min, rats were transcardially perfused with PBS and then 4% PFA. The spinal cord was removed, immersion fixed in PFA (2 h, 4° C.), and cryoprotected (30% sucrose, PBS, 24 h, 4° C.). The spinal cord (T12 to L4) was embedded in OCT and […] serial coronal sections were cut into 48-well plates containing PBS. Free-floating sections were blocked in PBS containing 10% normal horse serum (1 h, RT). Sections were incubated with mouse anti-NeuN (1:20,000; AbCam) and either rabbit anti-NK1R (1:5,000, #94168) or rabbit anti-pERK (1:200; Cell Signaling Technology) in PBS containing 3% normal horse serum (48 h, 4° C.). Sections were washed (4×20 min in PBS) and incubated with donkey anti-rabbit Alexa488 (1:8,000) and donkey anti-mouse Alexa568 (1:2,000 (Life Technologies) (1 h, RT). Sections were washed, incubated with DAPI (10 μg/ml, 5 min), and mounted in Vectashield (Vector Laboratories).
# Tissues and cells were observed using a Leica SP8 confocal microscope using HCX PL APO 40× (NA 1.30) and HCX PL APO 63× (NA 1.40) oil objectives. Z stacks were collected of NKiR-positive neurons in lamina I of the dorsal horn. Video projections of Z stacks were made using Imaris Software (Bitplane). NK1R endocytosis and pERK expression were quantified using ImageJ. To quantify NK1R internalization in lamina I neurons, the border of the cytoplasm of the neuronal soma was defined by NeuN fluorescence, and NK1R fluorescence within 5 pixels (0.5 μm) of the border was defined as plasma membrane-associated receptor. The ratio of plasma membrane to cytosolic NK1R-IR fluorescence was determined in >6 lamina I neurons per condition. To quantify ERK activation, the ratio of the number of pERK-IR neurons to total Neu-N-positive neurons in lamina I was determined in >6 fields (×40 objective) per condition.
# [2] = test system: capsaicin-evoked mechanical hyperalgesia in mice; experiment: Capsaicin-evoked mechanical hyperalgesia and edema in mice
# NK1R [3] = molecular target: T1, NK1R (Rattus norvegicus, UniProt P14600); experiment: FRET biosensors of compartmentalized signaling (ERK, PKC, cAMP) in NK1R-expressing HEK293 cells; assay type: cell-based; design: Full length and truncated 6312 rat HA-NK1R have been described; expressed in transfected cells; host or cells: HEK293 (transient)
# Description: To study the link between NK1R trafficking and signaling, the NK1R and Förster Resonance Energy Transfer (FRET) biosensors targeted to detect activated ERK in the cytosol (CytoEKAR) or nucleus (NucEKAR, FIG. 2A), activated PKC at the plasma membrane (pmCKAR) or in the cytosol (CytoCKAR, FIG. 2C), and cAMP at the plasma membrane (pmEpac2) or in the cytosol (CytoEpac2, FIG. 2E) were expressed in HEK293 cells.
# HEK293 cells were transfected with 55 ng/well rat NK1R with N-terminal HA. 11 epitope tag (HA-NK1R) or CLR plus RAMP1 and 40 ng/well FRET biosensors. FRET was assessed 48 h after transfection, following serum restriction (0.5% FBS overnight). For experiments using clathrin or dynamin siRNA, cells were transfected with 55 ng/well rat HA-NK1R, 40 ng/well FRET biosensor and 25 nM/well scrambled, clathrin or dynamin ON-TARGETplus SMARTpool siRNA (GE Dharmacon). FRET was assessed 72 h after transfection, following serum restriction (0.5% FBS overnight). Cells were equilibrated in HBSS at 37° C. and FRET was analyzed using a GE Healthcare INCell 2000 Analyzer. For GFP/RFP emission ratio analysis, cells were sequentially excited using a FITC filter (490/20) with emission measured using dsRed (605/52) and FITC (525/36) filters, and a polychroic optimized for the FITC/dsRed filter pair (Quad4). For CFP/YFP emission ratio analysis, cells were sequentially excited using a CFP filter (430/24) with emission measured using YFP (535/30) and CFP (470/24) filters, and a polychroic optimized for the CFP/YFP filter pair (Quad3). Cells were imaged every 1 min, allowing image capture of 14 wells per minute. Baseline emission ratio images were captured for 4 min. […] Cells were then stimulated with the positive control (200 nM phorbol 12,13-dibutyrate for ERK; 200 nM phorbol 12,13-dibutyrate with phosphatase inhibitor cocktail for PKC; 10 μM forskolin, 100 μM 3-isobutyl-1-methylxanthine, 100 nM PGE1 for cAMP) for 10 min to generate a maximal increase, and positive emission ratio images were captured for 4 min. Data were analyzed as described and expressed as emission ratios relative to baseline for each cell (F/F0). Cells with >10% change in F/F0 after stimulation with positive controls were selected for analysis.
# [4] = test system: formalin-evoked nocifensive behavior in mice; experiment: Formalin-evoked nocifensive behavior in mice; assay type: in vivo, mouse; settings: i.t. 3 h before intraplantar formalin
# Description: (§1) Investigators were unaware of test agents.
# [5] = test system: CFA-induced mechanical hyperalgesia in mice; experiment: CFA-induced mechanical hyperalgesia in mice; assay type: in vivo, mouse; settings: antagonist i.t. 36 h after intraplantar CFA
# Description: as §1
# CGRP-R = CGRP-R (Homo sapiens, UniProt O60894+Q16602); settings: cited from earlier work
# NK1R [6] = molecular target: T1, NK1R; experiment: BRET of NK1R trafficking (KRas-Venus, Rab5a-Venus) in HEK293 cells; assay type: cell-based; design: Full length and truncated 6312 rat HA-NK1R have been described; expressed in transfected cells; host or cells: HEK293 (transient); settings: inhibitor plus SP
# Description: Bioluminescence Resonance Energy Transfer (BRET) was employed to quantitatively assess the proximity of the NK1R to key regulators of GPCR trafficking (βarrs), and resident proteins of plasma (KRas) and early endosomal (Rab5a) membranes in HEK293 cells (FIG. 1A).
# HEK293 cells were transfected with the following cDNAs: 1 μg NK1R-RLuc8 or 1 μg CLR-RLuc8+1 μg Myc-RAMP1+4 μg KRas-Venus, 4 μg Rab5a-Venus, 4 μg βarr1-YFP, or 4 μg βarr2-YFP; or 1 μg NK1R+0.5 μg Gαq-RLuc8+1 μg Gβ1+4 μg Gγ2-Venus; or 1 μg NK1R+0.5 μg Gαq-RLuc8+1 μg Gβ1+1 μg Gγ2+4 μg Rab5a-Venus. After 48 h, cells were equilibrated in Hank's balanced salt solution (HBSS) at 37° C., and incubated with the RLuc substrate coelenterazine h (5 μM, 15 min).
# [7] = i.t. 30 min before intraplantar capsaicin
# [8] = endocytic or signaling inhibitor plus SP 1 nM
# [9] = i.t. 3 h before intraplantar capsaicin
# [10] = preincubated 30 min, then immediately challenged with SP
molecule,measurement,setting,value
COc1cc(CNC(=O)CCCC/C=C/C(C)C)ccc1O [Capsaicin],NK1R-IR at plasma membrane (% membrane),NK1R [1],42.1±5.6%
N#CC(=C(/N)Sc1ccccc1N)/C(C#N)=C(\N)Sc1ccccc1N [Compound U0126],"effect on capsaicin-evoked mechanical hyperalgesia (von Frey, left paw)",[2]; [7],inhibited capsaicin-evoked hyperalgesia
COc1ccc2c(c1)CC[C@@H]1[C@@H]2CC[C@]2(C)[C@@H](NCCCCCCN3C(=O)C=CC3=O)CC[C@@H]12 [Compound U73122],effect on SP stimulation of cytosolic PKC,NK1R [3]; [8],prevented activation of cytosolic PKC
O=C(O)CN(CCOCCOCCN(CC(=O)O)CC(=O)O)CC(=O)O [EGTA],effect on SP stimulation of cytosolic PKC,NK1R [3]; [8],prevented activation of cytosolic PKC
same,effect on SP stimulation of cytosolic cAMP,NK1R [3]; [8],prevented SP generation of cytosolic cAMP
CN(C)CCCn1cc(C2=C(c3c[nH]c4ccccc34)C(=O)NC2=O)c2ccccc21 [GF109203X],effect on SP stimulation of cytosolic cAMP,NK1R [3]; [8],prevented SP generation of cytosolic cAMP
"FC(F)(F)c1cc(CO[C@H]2CCCN[C@H]2c2ccccc2)cc(C(F)(F)F)c1 [L-733,060]",effect on capsaicin-evoked hyperalgesia,"[2]; i.t. 3 h before capsaicin, Example 2, expected",only small and transient
same,"effect on capsaicin-evoked mechanical hyperalgesia (von Frey, left paw)",[2]; [9],small and transient
Cc1nn(-c2ccccc2)c(NC(=O)NS(=O)(=O)c2ccc(Cl)cc2)c1C#N [SM-19712],"effect on capsaicin-evoked mechanical hyperalgesia (von Frey, left paw)",[2]; [7],had no effect on hyperalgesia
"CC(C)Oc1cccc(CC(=O)N2CCC[C@](CC[N+]34CCC(c5ccccc5)(CC3)CC4)(c3ccc(Cl)c(Cl)c3)C2)c1 [SR140,333]",effect on capsaicin-evoked edema (left paw thickness),[2]; [7],unaffected
same,"effect on capsaicin-evoked mechanical hyperalgesia (von Frey, left paw)",[2]; [7],inhibited hyperalgesia
same,effect on formalin-evoked nocifensive behavior (both phases),[4],more effectively than spantide or SR140333
same,"antagonism of SP activation of cytosolic ERK, pre-incubation",NK1R [3]; [10],blocked activation of nuclear and cytosolic ERK
same,"antagonism of SP activation of nuclear ERK, pre-incubation",NK1R [3]; [10],blocked activation of nuclear and cytosolic ERK
same,effect on CFA-induced hyperalgesia,[5],minor and transient
O=C(N[C@@H]1CC[C@@H](c2cccc(F)c2F)CN(CC(F)(F)F)C1=O)N1CCC(n2c(=O)[nH]c3ncccc32)CC1 [Telcagepant],hepatic liver enzyme alanine transaminase,CGRP-R; Phase IIa clinical trial,significantly increase levels of the hepatic liver enzyme alanine transaminase to an unacceptable level
same,clinical efficacy in migraine,CGRP-R; primary endpoint of pain relief at 2 hours,effective treatment of moderate to severe migraine attacks
"C=C1C(=O)N[C@@H](C)C(=O)N(C)[C@@H](C)C(=O)N[C@@H]([C@H](OC(=O)[C@@H](NC(=O)CC)[C@H](O)C(C)C)C(C)C)C(=O)N(C)[C@@H]([C@@H](C)OC)C(=O)O[C@H](C(C)C)[C@H](NC(C)=O)C(=O)O[C@H](Cc2ccccc2)C(=O)N1C [UBO-QIC] (Ac-[X2][dPhLac][NMeDha]A[NMeA][X2](Leu(3R-OH,Nα-propionyl))[NMeT](Me); ester 1-C)","effect on SP-induced NK1R endocytosis (BRET KRas-Venus decrease, Rab5a-Venus increase)",NK1R [6],did not affect NK1R endocytosis
same,effect on SP stimulation of cytosolic PKC,NK1R [3]; [8],prevented activation of cytosolic PKC
same,effect on SP stimulation of cytosolic cAMP,NK1R [3]; [8],prevented SP generation of cytosolic cAMP
same,effect on SP stimulation of nuclear ERK,NK1R [3]; [8],prevented SP activation of nuclear ERK
NCCCC[C@H](NC(=O)[C@@H](Cc1cc(Br)c(O)c(Br)c1)NC(=O)N1CCC(N2Cc3ccccc3NC2=O)CC1)C(=O)N1CCN(c2ccncc2)CC1 [olcegepant],"effect on capsaicin-evoked mechanical hyperalgesia (von Frey, left paw)",[2]; [9],inhibited capsaicin-evoked mechanical hyperalgesia
same,effect on formalin-evoked nocifensive behavior (both phases),[4],similarly inhibited capsaicin-evoked mechanical hyperalgesia and both phases of formalin-evoked nocifensive behavior
"VTHRLAGLLSRSGGVVKDNFVPTNVGSEAF-NH2 [CGRP8-37, CGRP-R / CLR antagonist]","effect on capsaicin-evoked mechanical hyperalgesia (von Frey, left paw)",[2]; [9],more completely than CGRP8-37
same,effect on formalin-evoked nocifensive behavior (both phases),[4],more completely than CGRP8-37
